Experimental data taken from patent US20180000085A1, “USE OF PICOLINAMIDE COMPOUNDS WITH FUNGICIDAL ACTIVITY” (DOW AGROSCIENCES LLC, priority 2014, published 2018).

Tests used:
[1] = system: Zymoseptoria tritici; test: Leaf blotch of wheat (SEPTTR) disease control on wheat seedlings; format: in vivo; set-up: key to SEPTTR 1DP, HV activity at 100 ppm (% control rating) / SEPTTR 3DC, HV activity at 100 ppm (% control rating) / SEPTTR disease control, 1DP / SEPTTR disease control, 3DC / SEPTTR 1DP disease control rating, HV activity / SEPTTR 3DC disease control rating, HV activity / SEPTTR 3DC, LV activity at 125.1 g/H (% Control rating) / SEPTTR 1DP, LV activity at 125.1 g/H (% Control rating) / SEPTTR 1DP disease control rating, LV activity at 125.1 g/H / SEPTTR 3DC disease control rating, LV activity at 125.1 g/H / SEPTTR 3DC disease control rating, HV activity at 100 ppm / SEPTTR 1DP disease control rating, HV activity at 100 ppm / HV activity at 100 ppm SEPTTR 3DC (disease control rating) / HV activity at 100 ppm SEPTTR 1DP (disease control rating) / LV activity at 125.1 g/H SEPTTR 1DP (disease control rating) / LV activity at 125.1 g/H SEPTTR 3DC (disease control rating): A: > 80; B: ≤ 80; C: Not Tested; D: No Activity Observed in the Reported Assay; settings: HV application at 100 ppm, wheat leaf blotch; for SEPTTR 1DP disease control rating, HV activity: 1 Day Protectant; for SEPTTR 3DC disease control rating, HV activity: 3 Day Curative
Description: (§1) All fungicides were evaluated using the aforementioned method for their activity vs. all target diseases, unless stated otherwise. Wheat leaf blotch and brown rust activity were also evaluated using track spray applications, in which case the fungicides were formulated as EC formulations, containing 0.1% Trycol 5941 in the spray solutions. Wheat plants (variety Yuma) were grown from seed in a greenhouse in 50% mineral soil/50% soil-less Metro mix until the first leaf was fully emerged, with 7-10 seedlings per pot. These plants were inoculated with an aqueous spore suspension of Zymoseptoria tritici either prior to or after fungicide treatments. After inoculation the plants were kept in 100% relative humidity (one day in a dark dew chamber followed by two to three days in a lighted dew chamber at 20° C.) to permit spores to germinate and infect the leaf. The plants were then transferred to a greenhouse set at 20° C. for disease to develop. When disease symptoms were fully expressed on the 1st leaves of untreated plants, infection levels were assessed on a scale of 0 to 100 percent disease severity. Percent disease control was calculated using the ratio of disease severity on treated plants relative to untreated plants.

[2] = system: Puccinia triticina; test: Wheat brown rust (PUCCRT) disease control on wheat seedlings; format: in vivo; set-up: key to PUCCRT 3DC, HV activity at 100 ppm (% control rating) / PUCCRT disease control, 3DC / PUCCRT 1DP disease control rating, HV activity / PUCCRT 3DC disease control rating, HV activity / PUCCRT 3DC, LV activity at 125.1 g/H (% Control rating) / PUCCRT 1DP, LV activity at 125.1 g/H (% Control rating) / PUCCRT 3DC disease control rating, LV activity at 125.1 g/H / PUCCRT 1DP disease control rating, LV activity at 125.1 g/H / PUCCRT 3DC disease control rating, HV activity at 100 ppm / PUCCRT 1DP disease control rating, HV activity at 100 ppm / HV activity at 100 ppm PUCCRT 3DC (disease control rating) / LV activity at 125.1 g/H PUCCRT 1DP (disease control rating) / LV activity at 125.1 g/H PUCCRT 3DC (disease control rating): A: > 80; B: ≤ 80; C: Not Tested; D: No Activity Observed in the Reported Assay; settings: HV application at 100 ppm, wheat brown rust; for PUCCRT 1DP disease control rating, HV activity: 1 Day Protectant; for PUCCRT 3DC disease control rating, HV activity: 3 Day Curative
Description: as §1, with “plants. Example B: Evaluation of Fungicidal Activity: Wheat Brown Rust (Puccinia triticina; Synonym: Puccinia recondita f. sp. Tritici; Bayer Code PUCCRT) Wheat plants (variety Yuma) were grown from seed in a greenhouse in 50% mineral soil/50% soil-less Metro mix until the first leaf was fully emerged, with 7-10 seedlings per pot. These plants were inoculated with an aqueous spore suspension of Puccinia triticina either prior to or after fungicide treatments. […] The plants were then transferred to a greenhouse set at 24° C. for disease to develop. Fungicide formulation, application and disease assessment followed the procedures as described in the Example A.” for “plants.”

Structure (SMILES)	SEPTTR 1DP disease control rating, HV activity [1]	SEPTTR 3DC disease control rating, HV activity [1]	PUCCRT 1DP disease control rating, HV activity [2]	PUCCRT 3DC disease control rating, HV activity [2]
CCCOC[C@H](C)OC(=O)[C@H](C)NC(=O)c1nccc(OC)c1O [Cmpd 334]	B (≤ 80)	B (≤ 80)	D	B (≤ 80)
COc1ccnc(C(=O)N[C@@H](C)C(=O)O[C@@H](C)COc2ccccc2)c1O [Cmpd 335]	B (≤ 80)	D	A (> 80)	A (> 80)
COc1ccnc(C(=O)N[C@@H](C)C(=O)O[C@@H](C)COC(=O)C(C)C)c1O [Cmpd 336]	B (≤ 80)	B (≤ 80)	D	D
COc1ccnc(C(=O)N[C@@H](C)C(=O)O[C@@H](C)COCC2CC2)c1O [Cmpd 338]	B (≤ 80)	D	B (≤ 80)	D
COc1ccnc(C(=O)N[C@@H](C)C(=O)O[C@@H](C)COCC(C)C)c1O [Cmpd 339]	B (≤ 80)	D	B (≤ 80)	A (> 80)
COc1ccnc(C(=O)N[C@@H](C)C(=O)O[C@@H](C)COC2CCCC2)c1O [Cmpd 340]	B (≤ 80)	D	B (≤ 80)	A (> 80)
COc1ccnc(C(=O)N[C@@H](C)C(=O)O[C@@H](C)COC(C)(C)C)c1O [Cmpd 341]	B (≤ 80)	B (≤ 80)	B (≤ 80)	B (≤ 80)
COc1ccnc(C(=O)N[C@@H](C)C(=O)O[C@@H](C)[C@@H](Cc2ccccc2)OC)c1O [Cmpd 342]	D	B (≤ 80)	B (≤ 80)	A (> 80)
COc1ccnc(C(=O)N[C@@H](C)C(=O)O[C@@H](C)[C@@H](Cc2ccccc2)OCC(C)C)c1O [Cmpd 343]	A (> 80)	B (≤ 80)	A (> 80)	A (> 80)
COc1ccnc(C(=O)N[C@@H](C)C(=O)O[C@@H](C)[C@@H](Cc2ccccc2)OCC2CC2)c1O [Cmpd 344]	D	B (≤ 80)	B (≤ 80)	A (> 80)
COc1ccnc(C(=O)N[C@@H](C)C(=O)O[C@@H](C)[C@@H](Cc2ccccc2)Oc2ccccc2)c1O [Cmpd 345]	D	B (≤ 80)	A (> 80)	A (> 80)
COc1ccnc(C(=O)N[C@@H](C)C(=O)O[C@@H](C)[C@H](Oc2ccc(Cl)cc2Cl)C2CCCC2)c1O [Cmpd 346]	D	B (≤ 80)	B (≤ 80)	D
COc1ccnc(C(=O)N[C@@H](C)C(=O)O[C@@H](C)[C@@H](Oc2ccccc2)C(C)C)c1O [Cmpd 347]	B (≤ 80)	B (≤ 80)	B (≤ 80)	A (> 80)
COc1ccnc(C(=O)N[C@@H](C)C(=O)O[C@H](C)[C@@H](Oc2ccccc2)C(C)C)c1O [Cmpd 349]	D	B (≤ 80)	D	D
COc1ccnc(C(=O)N[C@@H](C)C(=O)O[C@H](C)[C@@H](Oc2ccccc2)c2ccccc2)c1O [Cmpd 350]	D	B (≤ 80)	D	A (> 80)
COc1ccnc(C(=O)N[C@H](C)C(=O)O[C@H](C)[C@@H](Oc2ccccc2)C(C)C)c1O [Cmpd 351]	B (≤ 80)	D	D	D
COc1ccnc(C(=O)N[C@H](C)C(=O)O[C@H](C)[C@@H](Oc2ccccc2)c2ccccc2)c1O [Cmpd 352]	D	B (≤ 80)	D	D
CCC(CC)[C@@H](OCC1CC1)[C@H](C)OC(=O)[C@H](C)NC(=O)c1nccc(OC)c1O [Cmpd 353]	B (≤ 80)	B (≤ 80)	A (> 80)	A (> 80)
CCC(CC)[C@@H](OCC(C)C)[C@H](C)OC(=O)[C@H](C)NC(=O)c1nccc(OC)c1O [Cmpd 354]	B (≤ 80)	B (≤ 80)	B (≤ 80)	A (> 80)
COc1ccnc(C(=O)N[C@@H](C)C(=O)O[C@@H](C)[C@@H](CC(C)C)Oc2ccccc2)c1O [Cmpd 355]	A (> 80)	A (> 80)	A (> 80)	A (> 80)
COc1ccnc(C(=O)N[C@@H](C)C(=O)O[C@@H](C)[C@H](Oc2ccccc2)C2CCCC2)c1O [Cmpd 356]	A (> 80)	B (≤ 80)	A (> 80)	A (> 80)
COc1ccnc(C(=O)N[C@@H](C)C(=O)O[C@@H](C)[C@H](Oc2cccc(Cl)c2)C(C)C)c1O [Cmpd 357]	A (> 80)	A (> 80)	A (> 80)	A (> 80)
